Here are results for 19 compounds from PubChem BioAssay AID256 (DTP/NCI, 2004).

This assay has as its system CD2F1 mice, L1210 leukemia ip, survival T/C. Nature of the assay: NCI In Vivo Anticancer Drug Screen. Data for tumor model L1210 Leukemia (intraperitoneal) in CD2F1 (CDF1) mice. As to conditions: higher = longer survival. In outline: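 Each value reflects a quotient of treated over vehicle control outcomes in mice with a transplanted tumor.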
Setting [1] is: endpoint: mean survival time, dose: 25.0 mg/kg/injection, schedule: Q01DX009 (ip), vehicle: saline with Tween-80.
Setting [2] is: endpoint: mean survival time, dose: 25.0 mg/kg/injection, schedule: Q04DX003 (ip), vehicle: saline with Tween-80.
Setting [3] is: endpoint: mean survival time, dose: 50.0 mg/kg/injection, schedule: Q01DX009 (ip), vehicle: saline with Tween-80.
Where [4] appears, read: endpoint: mean survival time, dose: 100.0 mg/kg/injection, schedule: Q01DX009 (ip), vehicle: saline with Tween-80.
The mark [5] stands for this setting: endpoint: mean survival time, dose: 100.0 mg/kg/injection, schedule: Q04DX003 (ip), vehicle: saline with Tween-80.
[6] abbreviates: endpoint: mean survival time, dose: 100.0 mg/kg/injection, schedule: Q01DX001 (ip), vehicle: saline with Tween-80.
Where [7] appears, read: endpoint: mean survival time, dose: 200.0 mg/kg/injection, schedule: Q01DX001 (ip), vehicle: saline with Tween-80.
The mark [8] stands for this setting: endpoint: mean survival time, dose: 400.0 mg/kg/injection, schedule: Q01DX001 (ip), vehicle: saline with Tween-80.
[9] abbreviates: endpoint: mean survival time, dose: 200.0 mg/kg/injection, schedule: Q01DX009 (ip), vehicle: saline with Tween-80.
Setting [10] is: endpoint: mean survival time, dose: 400.0 mg/kg/injection, schedule: Q01DX009 (ip), vehicle: saline with Tween-80.
Setting [11] is: endpoint: mean survival time, dose: 200.0 mg/kg/injection, schedule: Q04DX003 (ip), vehicle: saline with Tween-80.
Where [12] appears, read: endpoint: mean survival time, dose: 400.0 mg/kg/injection, schedule: Q04DX003 (ip), vehicle: saline with Tween-80.

Values joined by “and” are separate entries in the source; they are usually repeats but may differ in a detail not shown here. Identical values can stand only once. Inconclusive results and toxic doses are left out.

`Cc1ccc(C)c(C(=O)CCCCl)c1`: the T/C by setting is: under setting [1], 105 % of control; under setting [2], 93 % of control; under setting [3], 97 % of control; (endpoint: mean survival time, dose: 50.0 mg/kg/injection, schedule: Q04DX003 (ip), vehicle: saline with Tween-80) 96 % of control; under setting [4], 100 % of control; under setting [5], 96 % of control.
`Cc1c2c(cc3c1CCC1(C)C3CCC1C(C)/C=C/C(C)C(C)C)CCC=C2` (configuration not stated): the T/C runs as follows: under setting [6], 95 % of control; under setting [7], 90 % of control; under setting [8], 86 % of control.
`O=C1OCCO1`: the T/C reads like this: under setting [4], 92 % of control; under setting [9], 95 % of control; under setting [10], 97 % of control.
Take `C=CCN(CC=C)N=Nc1ccc(C(N)=O)cc1`: the T/C reads like this: (endpoint: mean survival time, dose: 19.75 mg/kg/injection, schedule: Q01DX009 (ip), vehicle: Klucel (hydroxypropylcellulose) (HPC)) 102 % of control; (endpoint: mean survival time, dose: 39.5 mg/kg/injection, schedule: Q01DX009 (ip), vehicle: Klucel (hydroxypropylcellulose) (HPC)) 102 % of control; (endpoint: mean survival time, dose: 79.0 mg/kg/injection, schedule: Q01DX009 (ip), vehicle: Klucel (hydroxypropylcellulose) (HPC)) 114 % of control and 110 % of control; (endpoint: mean survival time, dose: 118.0 mg/kg/injection, schedule: Q01DX009 (ip), vehicle: Klucel (hydroxypropylcellulose) (HPC)) 100 % of control; (endpoint: mean survival time, dose: 177.0 mg/kg/injection, schedule: Q01DX009 (ip), vehicle: Klucel (hydroxypropylcellulose) (HPC)) 112 % of control.
Turning to `CCC1(C)CCC2(C)C(CCC3C(C)(CO)CCCC32O)C1` (configuration not stated), the T/C was 98 % of control under setting [6], 94 % of control under setting [7] and 98 % of control under setting [8].
With `O=C(Nc1ccc(Cl)c(C(F)(F)F)c1)Nc1cc(C(F)(F)F)ccc1Sc1cc(Cl)c(Cl)cc1S(=O)(=O)O`, under setting [4], the T/C was 101 % of control.
Take `COC(=O)C(CCCCN=Cc1ccccc1O)N=Cc1ccccc1O.[Ni]` (configuration not stated): the T/C runs as follows: (endpoint: mean survival time, dose: 12.5 mg/kg/injection, schedule: Q01DX009 (ip), vehicle: saline with Tween-80) 96 % of control; under setting [1], 96 % of control; under setting [3], 88 % of control and 94 % of control; under setting [4], 93 % of control.
`NC(=S)NC(=O)c1ccccc1`: the T/C is 94 % of control under setting [5], 94 % of control under setting [11] and 94 % of control under setting [12].
Turning to `Cc1ccc(Cl)c(S(=O)(=O)F)c1`, the T/C is 88 % of control under setting [4]; 106 % of control under setting [5]; 103 % of control under setting [9]; 93 % of control under setting [11]; 101 % of control under setting [10]; 100 % of control under setting [12].
Take `NC(=S)NN=C1CCC(=NNC(N)=S)CC1`: the T/C reads like this: (endpoint: mean survival time, dose: 50.0 mg/kg/injection, schedule: Q01DX009 (ip), vehicle: other) 94 % of control; (endpoint: mean survival time, dose: 100.0 mg/kg/injection, schedule: Q01DX009 (ip), vehicle: other) 91 % of control; (endpoint: mean survival time, dose: 250.0 mg/kg/injection, schedule: Q01DX009 (ip), vehicle: other) 89 % of control.
As to `O=C(CC(=O)C(F)(F)C(F)(F)C(F)(F)F)C(F)(F)F.O=C(CC(=O)C(F)(F)C(F)(F)C(F)(F)F)C(F)(F)F.[Cu]`, the T/C is, setting by setting: (endpoint: mean survival time, dose: 3.13 mg/kg/injection, schedule: Q04DX002 (ip), vehicle: saline with Tween-80) 90 % of control; (endpoint: mean survival time, dose: 6.25 mg/kg/injection, schedule: Q04DX002 (ip), vehicle: saline with Tween-80) 87 % of control; (endpoint: mean survival time, dose: 12.5 mg/kg/injection, schedule: Q04DX002 (ip), vehicle: saline with Tween-80) 102 % of control; (endpoint: mean survival time, dose: 25.0 mg/kg/injection, schedule: Q04DX002 (ip), vehicle: saline with Tween-80) 98 % of control; (endpoint: median survival time, dose: 25.0 mg/kg/injection, schedule: Q04DX002 (ip), vehicle: saline with Tween-80) 111 % of control.
Take `CC(=O)CC1C(CC(=O)O)C1(C)C` (configuration not stated): the T/C is 100 % of control (endpoint: mean survival time, dose: 100.0 mg/kg/injection, schedule: Q01DX001 (ip), vehicle: alcohol); 102 % of control (endpoint: mean survival time, dose: 200.0 mg/kg/injection, schedule: Q01DX001 (ip), vehicle: alcohol); 102 % of control (endpoint: mean survival time, dose: 400.0 mg/kg/injection, schedule: Q01DX001 (ip), vehicle: alcohol).
Regarding `Nc1cc(C(F)(F)F)ccc1/C(=C/c1ccc(Cl)cc1)C(=O)O`, the T/C by setting is: (endpoint: mean survival time, dose: 75.0 mg/kg/injection, schedule: Q04DX003 (ip), vehicle: saline) 103 % of control; (endpoint: mean survival time, dose: 150.0 mg/kg/injection, schedule: Q04DX003 (ip), vehicle: saline) 102 % of control.
Take `NC(=O)N(CCCl)N=O`: the T/C reads like this: (endpoint: mean survival time, dose: 1.0 mg/kg/injection, schedule: Q01DX007 (ip), vehicle: saline) 292 % of control; (endpoint: mean survival time, dose: 1.0 mg/kg/injection, schedule: Q01DX009 (ip), vehicle: saline) 273 % of control; (endpoint: mean survival time, dose: 1.0 mg/kg/injection, schedule: Q03DX003 (ip), vehicle: saline) 187 % of control; (endpoint: mean survival time, dose: 1.0 mg/kg/injection, schedule: Q04DX003 (ip), vehicle: saline) 188 % of control; (endpoint: mean survival time, dose: 2.0 mg/kg/injection, schedule: Q01DX007 (ip), vehicle: saline) 242 % of control; (endpoint: mean survival time, dose: 2.0 mg/kg/injection, schedule: Q01DX009 (ip), vehicle: saline) 220 % of control. Also, the T/C is 286 % of control (endpoint: mean survival time, dose: 2.0 mg/kg/injection, schedule: Q03DX003 (ip), vehicle: saline); 284 % of control (endpoint: mean survival time, dose: 2.0 mg/kg/injection, schedule: Q04DX003 (ip), vehicle: saline); 105 % of control (endpoint: mean survival time, dose: 4.0 mg/kg/injection, schedule: Q01DX007 (ip), vehicle: saline); 101 % of control (endpoint: mean survival time, dose: 4.0 mg/kg/injection, schedule: Q01DX009 (ip), vehicle: saline); 308 % of control (endpoint: mean survival time, dose: 4.0 mg/kg/injection, schedule: Q04DX003 (ip), vehicle: saline).
Consider `COC(=S)C(c1ccccc1)(c1ccccc1)c1ccccc1`, for which the T/C (endpoint: mean survival time, dose: 100.0 mg/kg/injection, schedule: Q04DX002 (ip), vehicle: Klucel (hydroxypropylcellulose) (HPC)) is 93 % of control; the T/C (endpoint: mean survival time, dose: 200.0 mg/kg/injection, schedule: Q04DX002 (ip), vehicle: Klucel (hydroxypropylcellulose) (HPC)) is 89 % of control; the T/C (endpoint: mean survival time, dose: 400.0 mg/kg/injection, schedule: Q04DX002 (ip), vehicle: Klucel (hydroxypropylcellulose) (HPC)) is 89 % of control.
With `NNC(=O)c1ccc(Cl)cc1Cl`, the T/C by setting is: (endpoint: mean survival time, dose: 6.25 mg/kg/injection, schedule: Q04DX003 (ip), vehicle: saline with Tween-80) 97 % of control; (endpoint: mean survival time, dose: 12.5 mg/kg/injection, schedule: Q04DX003 (ip), vehicle: saline with Tween-80) 101 % of control; under setting [2], 103 % of control.
Consider `O=C(Nc1ccn(C2CC(O)C(CO)O2)c(=O)n1)c1ccccc1` (configuration not stated), for which the T/C (endpoint: median survival time, dose: 12.5 mg/kg/injection, schedule: Q01DX005 (ip), vehicle: saline with Tween-80) was 100 % of control; the T/C (endpoint: median survival time, dose: 25.0 mg/kg/injection, schedule: Q01DX005 (ip), vehicle: saline with Tween-80) was 104 % of control; the T/C (endpoint: median survival time, dose: 50.0 mg/kg/injection, schedule: Q01DX005 (ip), vehicle: saline with Tween-80) was 103 % of control; the T/C (endpoint: median survival time, dose: 100.0 mg/kg/injection, schedule: Q01DX005 (ip), vehicle: saline with Tween-80) is 98 % of control; the T/C (endpoint: median survival time, dose: 200.0 mg/kg/injection, schedule: Q01DX005 (ip), vehicle: saline with Tween-80) was 95 % of control.
As for `Cc1ccc(S(=O)(=O)/N=S(/C)CC/S(C)=N/S(=O)(=O)c2ccc(C)cc2)cc1` (configuration not stated), the T/C is 97 % of control (endpoint: mean survival time, dose: 100.0 mg/kg/injection, schedule: Q01DX001 (ip), vehicle: Klucel (hydroxypropylcellulose) (HPC)); 102 % of control (endpoint: mean survival time, dose: 200.0 mg/kg/injection, schedule: Q01DX001 (ip), vehicle: Klucel (hydroxypropylcellulose) (HPC)); 100 % of control (endpoint: mean survival time, dose: 400.0 mg/kg/injection, schedule: Q01DX001 (ip), vehicle: Klucel (hydroxypropylcellulose) (HPC)).
`COc1ccc2c(c1[N+](=O)[O-])CC[C@@H]1[C@@H]2CC[C@]2(C)C(=O)CC[C@@H]12`: the T/C (endpoint: median survival time, dose: 50.0 mg/kg/injection, schedule: Q01DX009 (ip), vehicle: saline with Tween-80) was 103 % of control; the T/C (endpoint: median survival time, dose: 100.0 mg/kg/injection, schedule: Q01DX009 (ip), vehicle: saline with Tween-80) is 103 % of control; the T/C (endpoint: median survival time, dose: 200.0 mg/kg/injection, schedule: Q01DX009 (ip), vehicle: saline with Tween-80) is 102 % of control; the T/C (endpoint: median survival time, dose: 400.0 mg/kg/injection, schedule: Q01DX009 (ip), vehicle: saline with Tween-80) is 103 % of control; the T/C (endpoint: median survival time, dose: 800.0 mg/kg/injection, schedule: Q01DX009 (ip), vehicle: saline with Tween-80) is 106 % of control.
